Source: US7741529B1, “Transgenic animal model for catecholaminergic polymorphic ventricular tachycardia (CPVT) and use thereof” (priority 2006, dated 2010)
Marks after values point to notes of the source that are not given here.

Assays:
Assay type in all cases: in vivo, mouse
[1] = test system: WT mice; assay: ECG radiotelemetry: effect of betablockers on RR interval in WT mice
[2] = test system: RyR2^+/RyR^R4496C mice; assay: Epinephrine and caffeine arrhythmia induction after propranolol pretreatment (continuous ECG monitoring)
Protocol: Arrhythmias were defined as follows: non sustained ventricular tachycardia (VTns) was defined as a series of 4 to 10 consecutive repetitive ventricular ectopic beats (VEBs), sustained VT (VTsust) was defined as a run of >10 consecutive VEBs, ventricular fibrillation (VF) was defined as a VTsust degenerating into ventricular fibrillation leading to sudden death.
(§1) ECG radiotelemetry monitors (Data Sciences International) were implanted intraabdominally under general anaesthesia (Avertin […]). Body temperature was maintained at 37° C. by use of a thermally controlled heating pad (Harvard Apparatus). ECG was continuously monitored starting 48 h after surgery. After 72 hours of recovery from surgery phenotype characterization was performed.
(§2) One group (Group 1) of animals exercised on a treadmill until exhaustion. The animals were then injected with epinephrine 2 mg/kg i.p. (WT n=12, RyR2^+/RyR^R4496C n=14). A second group of animals (Group 2) was injected with epinephrine (2 mg/kg ip) and caffeine (120 mg/kg i.p.) (WT, n=8, RyR2^+/RyR^R4496C, n=7). ECG monitoring was performed continuously during both exercise and drug testing protocols. Five additional RyR2^+/RyR^R4496C animals were treated for 24 hours with propranolol i.p. (2 mg/Kg) every 12 hours before being exposed to the epinephrine and caffeine protocol.
Among the RyR2^+/RyR^R4496C mice 4/8 or 50% developed sustained arrhythmias (VTsust n=2; FIG. 4 panel B and VF n=2; FIG. 5 panel B p=0.02 versus WT; Table I).
(§3) Five RyR2^+/RyR^R4496C mice were treated with propranolol to evaluate if antiadrenergic compounds could prevent induction of arrhythmias. After drug administration we observed a prolongation of RR interval from 94.5±13 to 118±13 msec […] (p<0.001). […] Despite pretreatment with betablockers, the administration of caffeine and epinephrine elicited VTsust in 2 and VF in 2 (sustained arrhythmias in 4 mice); only one mouse had no arrhythmias (p=0.56; i.e. non significant versus RyR2+/RyR^R4496C mice).

[3] = test system: RyR2^+/RyR^R4496C mice; assay: ECG radiotelemetry: effect of propranolol on RR and QT interval in RyR2+/RyRR4496C mice
Protocol: The cardiac activity in transgenic animals is preferably measured by continuous ECG monitoring. ECG radiotelemetry monitors (Data Sciences International) are typically implanted intraabdominally under general anaesthesia. After recovery from surgery the electrocardiographic signal is recorded continuously in conscious animal kept in special cages provided with receivers and connected to a A/D converted an a PC for data storage. Off-line analyses of stored ECGs parameters comprise: quantification of arrhythmias, heart rate trends, heart rate variability assessment (power spectrum analysis), QT interval and T wave assessments. Other parameters of cardiac functionality measurable by ECG are the following: baseline QT interval (measured using the tangent method^23), RR interval, RR variability.
as §1, §2, §3

[4] = 5 pretreated mice, epinephrine 2 mg/kg i.p. and caffeine 120 mg/kg i.p.
[5] = Group 2, N=5, epinephrine and caffeine i.p.

SMILES: CC(C)NCC(O)COc1cccc2ccccc12 (stereo not shown) [propranolol]
- percentage of RR change after betablockers (Δ%=ΔRR*100/RR baseline) ([1]; WT mice): 27±5%
- mean prolongation of RR interval ([1]; WT mice after betablockers): 22.92 ± 3.6 ms
- number of mice with VF [2, 4]: 2
- number of mice with VTsust [2, 4]: 2
- number of mice with no arrhythmias ([2]; 5 pretreated mice, epinephrine and caffeine): one
- sustained arrhythmias (number of mice) ([2]; 5 pretreated mice, epinephrine and caffeine, p=0.56 versus untreated RyR2+/RyR^R4496C mice): 4 mice
- All VT/VF (sum of animals experiencing VTns or VTsust or VF) [2, 5]: 4
- VTns (number of animals) [2, 5]: 0
- VTsust & VF (number of animals) [2, 5]: 4
- prevention of arrhythmias (in words) ([2]; RyR2^+/RyR^R4496C mice): not effective in preventing arrhythmias
- Baseline RR ([3]; Group 2, N=5, beta blockade, p=0.0001 vs untreated RyR2^+/RyR^R4496C): 121 + 23*
- Baseline QT ([3]; Group 2, N=5, beta blockade, tangent method, ANOVA P=0.966): 23 + 0.2§
- RR interval (in words) ([3]; RyR2^+/RyR^R4496C animals pretreated with betablockers, Group 2): significantly prolonged
- mean prolongation of RR interval ([3]; RyR2^+/RyR^R4496C mice after betablockers, p=0.69 vs WT): 23.62 ± 0.14 ms
- percentage of RR change after betablockers (Δ%=ΔRR*100/RR baseline) ([3]; RyR2^+/RyR^R4496C mice, p=0.52 vs WT): 25±3%
- RR interval after drug administration ([3]; five RyR2^+/RyR^R4496C mice, propranolol i.p. 2 mg/Kg every 12 hours for 24 hours, prolongation from 94.5±13, p<0.001): 118 ± 13 ms
